{"source": "paper PMC10938758", "about": "“A phenotypic screen of the Global Health Priority Box identifies an insecticide with anthelmintic activity” (Parasites & Vectors, 2024)", "key": {"[1]": {"tested_on": "exsheathed third-stage larvae (xL3s) of Haemonchus contortus", "assay": "Primary screen, H. contortus larval development and phenotype (microscopy)", "experimental": "An established high-throughput phenotypic screening assay was used to test the anthelmintic activity of compounds on H. contortus xL3s. Compounds were assessed for motility inhibition at a concentration of 20 µM in LB*. […] A solution of LB* + 1% (v/v) DMSO was used as a negative control. Test compounds were distributed amongst one flat-bottom, 384-well microplate (cat no. 3860; Corning, Corning, NY, USA). Eighty xL3s of H. contortus in 20 µl of LB* were added to each well to give a final volume of 40 µl. The plate was then placed in a CO2 incubator (10% [v/v] CO2, 38 °C, > 90% humidity). At 90 h, worm activity was captured using a WMicroTracker ONE unit (Phylumtech, Sunchales, Santa Fe, Argentina). Over a period of 15 min, disturbance of an infrared beam in individual wells was recorded as a worm ‘activity count’. Activity counts were then normalised to the positive and negative controls using the GraphPad Prism program (v.9.1.0 GraphPad Software, San Diego, CA, USA). The screening plate was then returned to the incubator (10% [v/v] CO2, 38 °C, > 90% humidity) for an additional 72 h. At 168 h, worms were fixed with 40 µl of Lugol solution (Sigma-Aldrich, St. Louis, MO, USA). Compounds were then assessed (microscopically) for inhibition of larval development and/or induction of a non-wild-type phenotype in H. contortus worms. […] The performance of the assay was monitored using the Z′-factor [58] calculated using data for the negative (DMSO) and positive (M-666) control compounds on individual plates."}, "H. contortus xL3s": {"tested_on": "H. contortus xL3s", "assay": "H. contortus dose-response assay, xL3 motility", "parameters": "species or system Haemonchus contortus", "settings": "xL3s, 90 h of incubation; for IC50: read-out: IC50, H. contortus larval motility inhibition", "experimental": "The dose–response assay for H. contortus followed a well-established protocol; it was employed to evaluate the potency of hit compounds against this nematode. Test compounds were assessed individually for an effect on the motility of xL3s (10-point, twofold serial dilution in LB*, 40–0.16 μM). One compound, monepantel (prepared in the same manner as the test compounds), was used as a positive control. A solution of LB* was used as a negative control. The test and positive-control compounds were arrayed in triplicate across individual flat-bottom 96-well microplates, with six wells on each plate containing the negative control. Three hundred xL3s of H. contortus in 50 μl of LB* were added to each well to give a final volume of 100 μl. Plates were then placed in a CO2 incubator (10% [v/v] CO2, 38 °C, > 90% humidity). […] Over a period of 15 min, disturbance of an infrared beam in individual wells was recorded as a worm activity count. Raw activity counts for each well were normalised to the negative controls. The compound concentrations were log10-transformed and fitted using a variable-slope four-parameter equation, using the ordinary least squares fit model, employing GraphPad Prism (v.9.1.0). Larval development was established at 168 h of incubation with compound, as described previously. The development inhibition and phenotypes of larvae were examined microscopically. A one-way analysis of variance (ANOVA) with a Tukey multiple comparison test or an unpaired t-test was used to establish statistically significant differences in larval motility or development."}, "H. contortus larvae": {"tested_on": "H. contortus larvae", "assay": "H. contortus dose-response assay, larval development", "parameters": "species or system Haemonchus contortus", "settings": "168 h of incubation, read-out: IC50, inhibition of H. contortus larval development", "experimental": "The dose–response assay for H. contortus followed a well-established protocol; it was employed to evaluate the potency of hit compounds against this nematode. Test compounds were assessed individually for an effect on the motility of xL3s (10-point, twofold serial dilution in LB*, 40–0.16 μM). One compound, monepantel (prepared in the same manner as the test compounds), was used as a positive control. A solution of LB* was used as a negative control. The test and positive-control compounds were arrayed in triplicate across individual flat-bottom 96-well microplates, with six wells on each plate containing the negative control. Three hundred xL3s of H. contortus in 50 μl of LB* were added to each well to give a final volume of 100 μl. Plates were then placed in a CO2 incubator (10% [v/v] CO2, 38 °C, > 90% humidity). After 168 h of incubation, worm activity was captured using a WMicroTracker ONE unit. Over a period of 15 min, disturbance of an infrared beam in individual wells was recorded as a worm activity count. Raw activity counts for each well were normalised to the negative controls. The compound concentrations were log10-transformed and fitted using a variable-slope four-parameter equation, using the ordinary least squares fit model, employing GraphPad Prism (v.9.1.0). Larval development was established at 168 h of incubation with compound, as described previously. The development inhibition and phenotypes of larvae were examined microscopically. A one-way analysis of variance (ANOVA) with a Tukey multiple comparison test or an unpaired t-test was used to establish statistically significant differences in larval motility or development."}, "C. elegans young adults": {"tested_on": "C. elegans young adults", "assay": "C. elegans dose-response assay, motility", "parameters": "species or system Caenorhabditis elegans", "settings": "40 h of incubation", "experimental": "The dose–response assay for C. elegans followed a well-established protocol and was employed to evaluate the potency of hit compounds against this nematode. Test and positive-control compounds as well as negative controls were prepared in 96-well microplates (cf.). One hundred C. elegans in 50 μl of LB* were added to each well to give a final volume of 100 μl. Plates were then placed in an incubator at 20 °C for 40 h. At 40 h, worm activity was captured using a WMicroTracker ONE unit. Raw activity counts for each well were normalised to the negative controls. The compound concentrations were log10-transformed and fitted using a variable-slope four-parameter equation, using the ordinary least squares fit model, employing GraphPad Prism (v.9.1.0). A one-way ANOVA with a Tukey multiple comparison test or an unpaired t-test was used to establish statistically significant differences in larval motility."}, "[2]": {"tested_on": "adult females of H. contortus", "assay": "Motility of H. contortus adult females (video scoring)", "parameters": "species or system Haemonchus contortus", "settings": "40 μM", "experimental": "The activity of two test compounds was assessed on adult female specimens of H. contortus in an established assay. The compound was added in triplicate to the wells of a 24-well plate (Corning, USA) at a concentration of 40 μM in 500 μl of RPMI*. Two positive-control compounds, monepantel and moxidectin, and a negative control containing 1% (v/v) DMSO only were included in triplicate on the same plate. Three adult females were added to each of the triplicate wells containing either the test compound or the controls and placed in a CO2 incubator (10% [v/v] CO2, 38 °C, > 90% relative humidity) for 24 h. A video recording (30 s) of each well was taken at 3 h, 6 h, 12 h and 24 h during the total incubation period to assess the reduction in worm motility, which was scored as 3 (‘good’), 2 (‘low’), 1 (‘very low’) or 0 (‘no movement’; cf.). For each test or control compound, the motility scores for each of the triplicate wells were calculated, normalised with reference to the negative control (100% motility) and recorded as a percentage. A two-way ANOVA with a Tukey multiple comparison test was used to establish statistically significant differences in worm motility."}, "[3]": {"tested_on": "rat hepatoma (FAO cell line) cells", "settings": "cited from earlier work"}, "[4]": {"settings": "H. contortus larvae; 20 µM; 168 h"}, "[5]": {"settings": "Haemonchus contortus, 168 h, H. contortus, 20 µM, read-out: Larval development inhibition, %"}}, "note": "Where two headings read alike, the source gives them in different places."}
{"molecule": "C=C(C)[C@H]1Cc2c(ccc3c2O[C@@H]2COc4cc(OC)c(OC)cc4[C@@H]2C3=O)O1", "note": "[MMV002519, rotenone]", "values": [{"measurement": "Abnormal phenotype", "setting": "[1]; [4]", "value": "Str"}, {"measurement": "Induction of an abnormal phenotype (in words)", "setting": "[1]; [4]", "value": "induced an abnormal phenotype"}, {"measurement": "inhibition at 20 µM", "setting": "[1]; Haemonchus contortus, 168 h, read-out: Larval development inhibition; %", "value": 100, "unit": "%"}]}
{"molecule": "C[C@](C#N)(COc1cc(C#N)ccc1C(F)(F)F)NC(=O)c1ccc(SC(F)(F)F)cc1", "note": "[Monepantel, monepantel]", "values": [{"measurement": "Abnormal phenotype", "setting": "[1]; [4]", "value": "Coi"}, {"measurement": "inhibition at 20 µM", "setting": "[1]; [5]", "value": 100, "unit": "%"}, {"measurement": "IC50", "setting": "H. contortus xL3s; Haemonchus contortus", "value": "330 ± 120", "unit": "nM"}, {"measurement": "Maximum motility inhibition (MMI), H. contortus larvae", "setting": "H. contortus xL3s", "value": 95, "unit": "%"}, {"measurement": "IC50", "setting": "H. contortus larvae; Haemonchus contortus", "value": "260 ± 30", "unit": "nM"}, {"measurement": "Maximum motility inhibition (MMI), C. elegans", "setting": "C. elegans young adults", "value": 95, "unit": "%"}, {"measurement": "IC50", "setting": "C. elegans young adults; Caenorhabditis elegans, read-out: IC50, C. elegans young adult motility", "value": "30 ± 10", "unit": "nM"}, {"measurement": "Reduction of motility of adult females of H. contortus", "setting": "[2]; 3 h", "value": "~ 0%"}, {"measurement": "Reduction of motility of adult females of H. contortus", "setting": "[2]; 6 h", "value": "~23", "unit": "%"}, {"measurement": "Reduction of motility of adult females of H. contortus", "setting": "[2]; 12 h", "value": "~66", "unit": "%"}, {"measurement": "Reduction of motility of adult females of H. contortus", "setting": "[2]; 24 h", "value": "~100", "unit": "%"}]}
{"molecule": "CCc1nn(C)c(C(=O)NCc2ccc(Oc3ccc(C)cc3)cc2)c1Cl", "note": "[MMV688934, tolfenpyrad]", "values": [{"measurement": "Abnormal phenotype", "setting": "[1]; [4]", "value": "Str"}, {"measurement": "Induction of an abnormal phenotype (in words)", "setting": "[1]; [4]", "value": "induced an abnormal phenotype"}, {"measurement": "inhibition at 20 µM", "setting": "[1]; Haemonchus contortus; H. contortus; 20 µM; 168 h; read-out: Larval development inhibition; %", "value": 100, "unit": "%"}, {"measurement": "Respiration in FAO cells", "setting": "[3]", "value": "inhibit respiration"}]}
{"molecule": "abamectin [MMV1577454]", "values": [{"measurement": "Abnormal phenotype", "setting": "[1]; [4]", "value": "Str"}]}
{"molecule": "COc1cc(/C=N/c2c(SC(F)(F)F)c(C#N)nn2-c2c(Cl)cc(C(F)(F)F)cc2Cl)ccc1O", "note": "[MMV1794214]", "values": [{"measurement": "Induction of an abnormal phenotype (in words)", "setting": "[1]; [4]", "value": "did not inhibit development or induce an abnormal phenotype"}, {"measurement": "Maximum motility inhibition (MMI), H. contortus larvae", "setting": "H. contortus xL3s", "value": 70, "unit": "%"}, {"measurement": "IC50", "setting": "H. contortus xL3s", "value": "4500 ± 1100", "unit": "nM"}, {"measurement": "IC50", "setting": "H. contortus larvae", "value": "> 40000", "unit": "nM"}, {"measurement": "Reduction of motility of adult females of H. contortus", "setting": "[2]; 3 h", "value": "~ 0%"}, {"measurement": "Reduction of motility of adult females of H. contortus", "setting": "[2]; 6 h", "value": "~ 0%"}, {"measurement": "Reduction of motility of adult females of H. contortus", "setting": "[2]; 12 h", "value": "~23", "unit": "%"}, {"measurement": "Reduction of motility of adult females of H. contortus", "setting": "[2]; 24 h", "value": "~15", "unit": "%"}]}
{"molecule": "CCOCn1c(-c2ccc(Cl)cc2)c(C#N)c(Br)c1C(F)(F)F", "note": "[MMV1577458, chlorfenapyr]", "values": [{"measurement": "Abnormal phenotype", "setting": "[1]; [4]", "value": "Cur"}, {"measurement": "Induction of an abnormal phenotype (in words)", "setting": "[1]; [4]", "value": "induced an abnormal phenotype"}, {"measurement": "inhibition at 20 µM", "setting": "[1]; [5]", "value": 100, "unit": "%"}]}
{"molecule": "O=C(Nc1ccc(Cl)c(C(F)(F)F)c1)Nc1ccc(Cl)c(C(F)(F)F)c1", "note": "[MMV027339]", "values": [{"measurement": "Induction of an abnormal phenotype (in words)", "setting": "[1]; [4]", "value": "did not inhibit development or induce an abnormal phenotype"}, {"measurement": "IC50", "setting": "H. contortus xL3s", "value": "> 40000", "unit": "nM"}]}
{"molecule": "CO/N=C1\\C[C@]2(C[C@@H]3C[C@@H](C/C=C(\\C)C[C@@H](C)/C=C/C=C4\\CO[C@@H]5[C@H](O)C(C)=C[C@@H](C(=O)O3)[C@]45O)O2)O[C@H](/C(C)=C/C(C)C)[C@H]1C", "note": "[Moxidectin, moxidectin]", "values": [{"measurement": "Larval development inhibition; %", "setting": "[1]; H. contortus; 20 µM; 168 h", "value": 100, "unit": "%"}]}
{"molecule": "CO[C@H]1C[C@H](O[C@@H]2/C(C)=C/C[C@@H]3C[C@@H](C[C@]4(CC[C@H](C)[C@@H](C5CCCCC5)O4)O3)OC(=O)[C@@H]3C=C(C)/C(=N/O)[C@H]4OC/C(=C\\C=C\\[C@@H]2C)[C@]43O)O[C@@H](C)[C@@H]1O", "note": "[MMV002231, selamectin]", "values": [{"measurement": "Abnormal phenotype", "setting": "[1]; [4]", "value": "Cur"}, {"measurement": "inhibition at 20 µM", "setting": "[1]; [5]", "value": "≥ 90", "unit": "%"}]}
{"molecule": "CO/N=C1\\C[C@]2(C[C@@H]3C[C@@H](C/C=C(\\C)C[C@@H](C)/C=C/C=C4\\CO[C@@H]5[C@H](O)C(C)=C[C@@H](C(=O)O3)[C@]45O)O2)O[C@H](/C(C)=C/C(C)C)[C@H]1C", "note": "[MMV1633828, moxidectin]", "values": [{"measurement": "inhibition at 20 µM", "setting": "[1]; [5]", "value": "≥ 90", "unit": "%"}]}
